Broadly, the IC50 is the concentration that inhibits the measured activity by half. A lower IC50 goes with inhibition by little substance. Usually inhibition stands for the change of the read-out against control, counted positive when it falls. Higher therefore signals a response far below the control. The bioavailability is the share of a dose that reaches the circulation, judged against a reference dose that is usually intravenous.

Series [1] deals with T1, Alpha-ketoglutarate-dependent dioxygenase AlkB (Escherichia coli (strain K12), UniProt P05050).
T1 sequence (P05050 whole entry): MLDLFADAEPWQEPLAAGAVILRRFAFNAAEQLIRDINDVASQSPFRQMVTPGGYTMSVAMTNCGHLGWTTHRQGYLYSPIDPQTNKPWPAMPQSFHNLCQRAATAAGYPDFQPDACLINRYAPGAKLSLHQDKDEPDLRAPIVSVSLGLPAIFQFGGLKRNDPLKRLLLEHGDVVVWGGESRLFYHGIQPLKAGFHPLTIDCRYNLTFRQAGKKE
The series is described as follows: Inhibition of Escherichia coli AlkB by HPLC analysis.

For series [2], the target named is T2, DNA oxidative demethylase ALKBH2 (Homo sapiens, UniProt Q6NS38).
T2 sequence (Q6NS38 whole entry): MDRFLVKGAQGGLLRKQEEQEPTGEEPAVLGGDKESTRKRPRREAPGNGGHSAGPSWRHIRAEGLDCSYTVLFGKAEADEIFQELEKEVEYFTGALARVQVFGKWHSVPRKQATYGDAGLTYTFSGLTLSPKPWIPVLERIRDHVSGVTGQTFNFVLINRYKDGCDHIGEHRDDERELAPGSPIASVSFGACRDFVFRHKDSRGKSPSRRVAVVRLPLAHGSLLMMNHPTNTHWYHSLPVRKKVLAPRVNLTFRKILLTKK
Put plainly: Inhibition of human ALKBH2 by HPLC analysis.

For series [3], the target named is T3, Alpha-ketoglutarate-dependent dioxygenase alkB homolog 3 (Homo sapiens, UniProt Q96Q83).
T3 sequence (Q96Q83 whole entry): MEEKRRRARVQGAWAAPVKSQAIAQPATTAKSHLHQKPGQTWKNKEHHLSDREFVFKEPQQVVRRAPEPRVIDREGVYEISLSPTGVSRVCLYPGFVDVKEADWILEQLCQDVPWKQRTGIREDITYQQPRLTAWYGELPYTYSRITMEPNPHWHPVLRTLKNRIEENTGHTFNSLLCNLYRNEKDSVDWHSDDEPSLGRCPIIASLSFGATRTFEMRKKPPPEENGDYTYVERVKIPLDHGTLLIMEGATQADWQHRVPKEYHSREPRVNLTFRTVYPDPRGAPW
The series is described as follows: Inhibition of human ALKBH3 by HPLC analysis.

Series [4] addresses T4, Alpha-ketoglutarate-dependent dioxygenase FTO (Homo sapiens, UniProt Q9C0B1). Put plainly: Inhibition of N-terminal 31 residues truncated His-tagged human FTO demethylase activity expressed in Escherichia coli BL21(DE3) cells.
In series [5] the target is T2, DNA oxidative demethylase ALKBH2. Put plainly: Inhibition of human ALKBH2 demethylase activity by restriction endonuclease digestion assay.
The target of series [6] is T3, Alpha-ketoglutarate-dependent dioxygenase alkB homolog 3. The series is described as follows: Inhibition of human ALKBH3 demethylase activity by restriction endonuclease digestion assay.
Series [7] concerns the target T5, RNA demethylase ALKBH5 (Homo sapiens, UniProt Q6P6C2). Put plainly: Inhibition of N-terminal His-tagged human ALKBH5 (66 to 292 residues).
Series [8] addresses T4, Alpha-ketoglutarate-dependent dioxygenase FTO. The series is described as follows: Inhibition of human FTO (31 to 505 residues) demethylase activity using 15-mer ssRNA with CUUGUCA(m6A)CAGCAGA sequence as substrate incubated for 0.5 hrs by LC-MS/MS analysis.
Series [9] deals with T5, RNA demethylase ALKBH5. Put plainly: Inhibition of ALKBH5 (unknown origin).
Series [10] in a line: Inhibition of human AlkB using fluorescent labeled DNA substrate (TTCmTTTTTTTTTTTT).
For series [11], the target named is Histone lysine demethylase PHF8 (Homo sapiens, UniProt Q9UPP1). Put plainly: Inhibition of PHF8 (unknown origin).
Series [12] has as its target T6, Gamma-butyrobetaine dioxygenase (Homo sapiens, UniProt O75936).
T6 sequence (O75936 whole entry): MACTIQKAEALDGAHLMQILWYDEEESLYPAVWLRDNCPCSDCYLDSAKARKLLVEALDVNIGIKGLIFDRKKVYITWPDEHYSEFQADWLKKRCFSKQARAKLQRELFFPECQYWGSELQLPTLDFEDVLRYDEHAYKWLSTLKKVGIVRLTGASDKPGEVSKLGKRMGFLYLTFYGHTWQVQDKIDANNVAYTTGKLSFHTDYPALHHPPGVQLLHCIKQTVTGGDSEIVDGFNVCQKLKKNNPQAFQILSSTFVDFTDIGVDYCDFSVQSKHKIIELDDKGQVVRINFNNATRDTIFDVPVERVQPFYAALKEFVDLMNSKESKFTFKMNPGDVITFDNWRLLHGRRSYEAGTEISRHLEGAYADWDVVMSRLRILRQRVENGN
The series is described as follows: Inhibition of BBOX1 (unknown origin).

For series [13], the target named is T7, Alpha-ketoglutarate-dependent dioxygenase alkB homolog 3 (Homo sapiens) (UniProt Q96Q83).
T7 sequence (whole entry): T3 sequence (Q96Q83 whole entry)
The series is described as follows: Inhibition of ALKBH3 (unknown origin) at 50 uM relative to control.

In series [14] the target is T1, Alpha-ketoglutarate-dependent dioxygenase AlkB. The series is described as follows: Inhibition of Escherichia coli AlkB-mediated demethylation using 40-mer single N3-meC containing ssDNA as substrate preincubated for 1 hr followed by substrate addition by fluorescence based assay.
Series [15] addresses T4, Alpha-ketoglutarate-dependent dioxygenase FTO. The series is described as follows: Inhibition of FTO (unknown origin) demethylation activity.
The target is the same in series [16]. Put plainly: Inhibition of N-terminal 31 residues truncated FTO (unknown origin) demethylase activity using m6A containing ssRNA as substrate incubated for 1 hr by LC-MS analysis.
In series [17] the target is T5, RNA demethylase ALKBH5. Put plainly: Inhibition of human ALKBH5 (66 to 292 residues) demethylase activity using 49 nt methylated ssDNA as substrate incubated for 2 hrs by GelRed staining based restriction endonuclease digestion assay.
The target of series [18] is T3, Alpha-ketoglutarate-dependent dioxygenase alkB homolog 3. The series is described as follows: Inhibition of ALKBH3 (unknown origin) using 3-methyl cytosine oligo DNA as substrate incubated for 1 hr by SYBR green dye based RT-PCR analysis.
For series [19], the target named is T1, Alpha-ketoglutarate-dependent dioxygenase AlkB. Put plainly: Inhibition of Escherichia coli AlkB DNA repair activity using 1-methyladenine with GC-1meA-AGGTCCCGTAGTGCG sequence as substrate by FDH coupled assay.
Series [20] has as its target T5, RNA demethylase ALKBH5. The series is described as follows: Inhibition of human ALKBH5 (74 to 294 residues) expressed in Escherichia coli BL21(DE3) V2R-pRARE cells using biotin labeled m6A-ss-RNA with UACACUCGAUCUGG(m6A)CUAAAGCUGCUC sequence as substrate incubated for 1 hr by TopCount scintillation counting method.
Series [21] concerns the target Egl nine homolog 1 (Homo sapiens, UniProt Q9GZT9). The series is described as follows: Inhibition of N-terminal truncated PHD2 (unknown origin) by luminescence based assay.
Series [22] can be described thus: Oral bioavailability in rat. The class given is ADME, organism-based. Particulars: in vivo.

T5 sequence (Q6P6C2 whole entry, the tested form may be a part): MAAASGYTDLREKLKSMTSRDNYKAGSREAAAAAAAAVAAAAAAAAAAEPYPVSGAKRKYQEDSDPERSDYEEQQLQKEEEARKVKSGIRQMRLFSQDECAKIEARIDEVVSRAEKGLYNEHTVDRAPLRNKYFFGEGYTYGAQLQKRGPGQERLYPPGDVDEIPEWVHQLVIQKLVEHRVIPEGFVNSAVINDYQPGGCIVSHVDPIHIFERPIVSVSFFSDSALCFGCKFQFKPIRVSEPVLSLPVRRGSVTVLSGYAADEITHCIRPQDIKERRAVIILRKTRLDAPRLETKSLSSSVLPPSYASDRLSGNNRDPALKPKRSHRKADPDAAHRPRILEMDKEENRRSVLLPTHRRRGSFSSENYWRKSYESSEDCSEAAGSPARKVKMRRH
T4 sequence (Q9C0B1 whole entry, the tested form may be a part): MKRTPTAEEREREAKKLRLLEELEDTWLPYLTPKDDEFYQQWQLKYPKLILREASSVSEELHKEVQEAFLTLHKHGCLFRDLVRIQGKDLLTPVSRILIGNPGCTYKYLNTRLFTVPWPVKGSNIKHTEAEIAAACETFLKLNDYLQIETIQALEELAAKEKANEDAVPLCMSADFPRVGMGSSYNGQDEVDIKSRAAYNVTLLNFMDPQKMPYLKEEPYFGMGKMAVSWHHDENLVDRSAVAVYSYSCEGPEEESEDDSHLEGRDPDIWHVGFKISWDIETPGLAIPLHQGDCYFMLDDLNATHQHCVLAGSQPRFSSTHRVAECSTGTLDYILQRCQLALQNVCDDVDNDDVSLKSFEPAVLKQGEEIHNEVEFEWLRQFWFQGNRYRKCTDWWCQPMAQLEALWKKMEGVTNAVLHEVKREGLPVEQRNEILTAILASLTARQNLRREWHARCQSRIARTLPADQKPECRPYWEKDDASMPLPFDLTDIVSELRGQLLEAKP
Egl nine homolog 1, sequence (Q9GZT9 whole entry, the tested form may be a part): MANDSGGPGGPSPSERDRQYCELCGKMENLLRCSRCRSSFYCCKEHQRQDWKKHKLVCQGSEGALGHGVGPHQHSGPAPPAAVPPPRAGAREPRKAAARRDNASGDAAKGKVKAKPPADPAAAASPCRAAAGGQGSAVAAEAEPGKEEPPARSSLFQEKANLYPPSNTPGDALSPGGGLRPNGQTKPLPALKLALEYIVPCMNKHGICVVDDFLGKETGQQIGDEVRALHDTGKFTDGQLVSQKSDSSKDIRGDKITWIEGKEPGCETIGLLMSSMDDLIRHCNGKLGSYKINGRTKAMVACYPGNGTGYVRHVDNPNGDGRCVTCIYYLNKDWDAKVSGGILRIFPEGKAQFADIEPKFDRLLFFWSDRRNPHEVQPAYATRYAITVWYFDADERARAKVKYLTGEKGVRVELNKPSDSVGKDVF
Histone lysine demethylase PHF8, sequence (Q9UPP1 whole entry): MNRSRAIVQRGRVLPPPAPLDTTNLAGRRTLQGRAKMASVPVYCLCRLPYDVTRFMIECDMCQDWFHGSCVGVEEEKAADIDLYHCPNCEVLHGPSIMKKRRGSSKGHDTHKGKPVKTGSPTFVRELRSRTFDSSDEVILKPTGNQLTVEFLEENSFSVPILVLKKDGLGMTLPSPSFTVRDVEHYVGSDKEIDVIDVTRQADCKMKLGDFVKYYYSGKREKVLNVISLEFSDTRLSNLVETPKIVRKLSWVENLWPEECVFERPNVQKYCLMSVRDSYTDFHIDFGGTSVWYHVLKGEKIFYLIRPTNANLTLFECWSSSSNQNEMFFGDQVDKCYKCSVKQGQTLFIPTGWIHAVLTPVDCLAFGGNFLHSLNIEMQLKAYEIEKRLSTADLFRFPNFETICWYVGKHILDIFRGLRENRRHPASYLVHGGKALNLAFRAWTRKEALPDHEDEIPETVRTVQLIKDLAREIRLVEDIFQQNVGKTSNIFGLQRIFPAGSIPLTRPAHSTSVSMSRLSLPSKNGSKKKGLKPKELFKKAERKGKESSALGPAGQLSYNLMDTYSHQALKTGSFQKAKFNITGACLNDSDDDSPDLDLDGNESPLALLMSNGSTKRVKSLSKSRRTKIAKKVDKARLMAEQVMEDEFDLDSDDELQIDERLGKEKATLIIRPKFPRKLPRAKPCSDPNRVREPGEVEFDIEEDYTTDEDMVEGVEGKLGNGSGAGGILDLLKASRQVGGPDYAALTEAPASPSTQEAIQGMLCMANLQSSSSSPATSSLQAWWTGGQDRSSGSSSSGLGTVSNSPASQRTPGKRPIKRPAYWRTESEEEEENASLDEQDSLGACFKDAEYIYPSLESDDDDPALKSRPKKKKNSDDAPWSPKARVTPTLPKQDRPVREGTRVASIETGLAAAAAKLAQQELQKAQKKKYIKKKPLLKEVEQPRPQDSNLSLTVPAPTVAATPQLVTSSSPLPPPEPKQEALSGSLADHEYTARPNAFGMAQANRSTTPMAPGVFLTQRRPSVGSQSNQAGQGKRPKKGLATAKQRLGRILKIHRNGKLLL

Take `O=C(O)c1cc(O)c2c(c1)C(=O)c1cccc(O)c1C2=O` [RHEIN]: the IC50 in series [1] turned out to be 12.7 µM; in series [2], 9.1 µM; in [3], 5.3 µM.

As to `Cc1ccc(Cl)c(Nc2ccccc2C(=O)O)c1Cl` [MECLOFENAMIC ACID], the IC50 in series [4] is 8 µM; in series [5] it was more than 100 µM; in series [6] it was more than 100 µM; in [7] it was more than 100 µM.

In the case of `COc1cc2c(cc1Cl)C(C)(C)CC(C)(c1cc(Cl)c(O)cc1O)O2` (configuration not stated), the midpoint of inhibition in series [8], the IC50, lay at 39.2 µM.

As to `O=C(O)c1ccnc(C(=O)O)c1`, the IC50 in series [9] was 9.43 µM; in [10], 84 µM; in series [11], 153 µM; in series [12], 82 µM.

As to `O=C1c2ccc(-c3ccccc3)cc2C(NC2CCCCC2)C1Cl` (configuration not stated), the inhibition in series [13] is 0%. In series [14], this molecule yielded an IC50 of 19.4 µM.

`CCN(CC)C(=O)/C(C#N)=C/c1cc(O)c(O)c([N+](=O)[O-])c1` [ENTACAPONE] returned an IC50 in [15] of 3.5 µM.

Consider `O=C1OC2(c3ccc(O)cc3Oc3cc(O)ccc32)c2ccccc21` [FLUORESCEIN], for which the half-inhibitory concentration (IC50) is 3.23 µM in series [16] and more than 100 µM in [17].

Regarding `Cc1nn(-c2nc3cc(F)ccc3[nH]2)c(O)c1-c1ccccc1`, the IC50 in series [18] is 2.9 µM.

For `O=C(O)c1ccc(O)c2ncccc12`, the IC50 stood at 10.2 µM in [19] and 2.9 µM in series [20].

The molecule `O=C(O)CNC(=O)c1ncccc1O` displayed an IC50 in [21] of 409 µM.

`Cc1ccc2[nH]c(-n3nc(C)cc3O)nc2c1` returned a bioavailability in series [22] of 7.2%.

(Values after ChEMBL document CHEMBL5226352, “Inhibition of AlkB Nucleic Acid Demethylases: Promising New Epigenetic Targets” (J Med Chem, 2021).)
